Assay in all cases: relative viability (nuclei count vs DMSO), 5 days (fraction); higher = more cells survive
Compound in the assay “17-AAG + Luminespib”: C=CCNC1=C2C[C@@H](C)C[C@H](OC)[C@H](O)[C@@H](C)/C=C(\C)[C@H](OC(N)=O)[C@@H](OC)/C=C\C=C(/C)C(=O)NC(=CC1=O)C2=O [17-AAG] + CCNC(=O)c1noc(-c2cc(C(C)C)c(O)cc2O)c1-c1ccc(CN2CCOCC2)cc1 [Luminespib] (partner 0.01 µM)
The essentials: (§1)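 Cells from lung cancer lines were seeded into 1536-well plates and, one day later, dosed by pin tool. Treatments were either a single drug or a fixed dose of an anchor drug with five library-drug doses (not always all listed) in √10 steps. After 5 days, nuclei were stained in a one-step fixation (final 0.05% Triton X-100, 1% formaldehyde, 1 ug/ml Hoechst) and counted on 4× images, and relative viability is the treated-to-vehicle nuclei ratio, as the median of duplicate plates.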

Compound in the assay “17-AAG + Foretinib”: C=CCNC1=C2C[C@@H](C)C[C@H](OC)[C@H](O)[C@@H](C)/C=C(\C)[C@H](OC(N)=O)[C@@H](OC)/C=C\C=C(/C)C(=O)NC(=CC1=O)C2=O [17-AAG] + COc1cc2c(Oc3ccc(NC(=O)C4(C(=O)Nc5ccc(F)cc5)CC4)cc3F)ccnc2cc1OCCCN1CCOCC1 [Foretinib] (partner 0.25 µM)
The method in brief: as §1

Compound in the assay “17-AAG + Dasatinib”: C=CCNC1=C2C[C@@H](C)C[C@H](OC)[C@H](O)[C@@H](C)/C=C(\C)[C@H](OC(N)=O)[C@@H](OC)/C=C\C=C(/C)C(=O)NC(=CC1=O)C2=O [17-AAG] + Cc1nc(Nc2ncc(C(=O)Nc3c(C)cccc3Cl)s2)cc(N2CCN(CCO)CC2)n1 [Dasatinib] (partner 0.075 µM)
The essentials:
as §1

Compound in the assay “17-AAG + Decitabine”: C=CCNC1=C2C[C@@H](C)C[C@H](OC)[C@H](O)[C@@H](C)/C=C(\C)[C@H](OC(N)=O)[C@@H](OC)/C=C\C=C(/C)C(=O)NC(=CC1=O)C2=O [17-AAG] + Nc1ncn([C@H]2C[C@H](O)[C@@H](CO)O2)c(=O)n1 [Decitabine] (partner 2 µM)
The method in brief: as §1

Take NCI-H2342: the relative viability with 17-AAG + Luminespib (first compound 0.00128 µM) came out at 0.695; with 17-AAG + Luminespib (first compound 0.004048 µM), 0.689; with 17-AAG + Luminespib (first compound 0.0128 µM) it was 0.602; in the assay with 17-AAG + Luminespib (first compound 0.04048 µM) it was 0.402; with 17-AAG + Luminespib (first compound 0.128 µM), 0.38; in the assay with 17-AAG + Foretinib (first compound 0.00128 µM) it was 0.97. The relative viability came out at 1.04 with 17-AAG + Foretinib (first compound 0.004048 µM); 0.968 with 17-AAG + Foretinib (first compound 0.0128 µM); 0.846 with 17-AAG + Foretinib (first compound 0.04048 µM); 0.374 with 17-AAG + Foretinib (first compound 0.128 µM); 0.294 with 17-AAG + Dasatinib (first compound 0.00128 µM); 0.394 in the assay with 17-AAG + Dasatinib (first compound 0.004048 µM). Besides, the relative viability was determined as 0.306 with 17-AAG + Dasatinib (first compound 0.0128 µM); 0.293 with 17-AAG + Dasatinib (first compound 0.04048 µM); 0.3 with 17-AAG + Dasatinib (first compound 0.128 µM); 0.735 with 17-AAG + Decitabine (first compound 0.00128 µM); 0.686 in the assay with 17-AAG + Decitabine (first compound 0.004048 µM); 0.739 in the assay with 17-AAG + Decitabine (first compound 0.0128 µM). The relative viability with 17-AAG + Decitabine (first compound 0.04048 µM) was 0.77; with 17-AAG + Decitabine (first compound 0.128 µM), 0.619.

As to NCI-H2347, the relative viability turned out to be 0.62 in the assay with 17-AAG + Luminespib (first compound 0.00128 µM); 0.278 with 17-AAG + Luminespib (first compound 0.004048 µM); 0.274 with 17-AAG + Luminespib (first compound 0.0128 µM); 0.299 with 17-AAG + Luminespib (first compound 0.04048 µM); 0.374 in the assay with 17-AAG + Luminespib (first compound 0.128 µM); 1.03 with 17-AAG + Foretinib (first compound 0.004048 µM). Also, the relative viability in the assay with 17-AAG + Foretinib (first compound 0.0128 µM) is 0.859; with 17-AAG + Foretinib (first compound 0.04048 µM) it was 0.35; in the assay with 17-AAG + Foretinib (first compound 0.128 µM), 0.413; with 17-AAG + Dasatinib (first compound 0.00128 µM), 0.308; with 17-AAG + Dasatinib (first compound 0.004048 µM) it was 0.248; with 17-AAG + Dasatinib (first compound 0.0128 µM) it was 0.216. Further, the relative viability came to 0.176 in the assay with 17-AAG + Dasatinib (first compound 0.04048 µM); 0.118 in the assay with 17-AAG + Dasatinib (first compound 0.128 µM); 0.659 with 17-AAG + Decitabine (first compound 0.00128 µM); 0.631 with 17-AAG + Decitabine (first compound 0.004048 µM); 0.558 in the assay with 17-AAG + Decitabine (first compound 0.0128 µM); 0.453 in the assay with 17-AAG + Decitabine (first compound 0.04048 µM). In the assay with 17-AAG + Decitabine (first compound 0.128 µM), the relative viability came to 0.386.

As to NCI-H2405, the relative viability with 17-AAG + Luminespib (first compound 0.00128 µM) came out at 0.542; with 17-AAG + Luminespib (first compound 0.004048 µM), 0.335; in the assay with 17-AAG + Luminespib (first compound 0.0128 µM), 0.256; with 17-AAG + Luminespib (first compound 0.04048 µM), 0.239; in the assay with 17-AAG + Luminespib (first compound 0.128 µM), 0.184; with 17-AAG + Foretinib (first compound 0.00128 µM), 1.1. Also, the relative viability worked out at 1.04 in the assay with 17-AAG + Foretinib (first compound 0.004048 µM); 0.93 with 17-AAG + Foretinib (first compound 0.0128 µM); 0.245 with 17-AAG + Foretinib (first compound 0.04048 µM); 0.195 in the assay with 17-AAG + Foretinib (first compound 0.128 µM); 0.195 with 17-AAG + Dasatinib (first compound 0.00128 µM); 0.173 in the assay with 17-AAG + Dasatinib (first compound 0.004048 µM). Moreover, the relative viability in the assay with 17-AAG + Dasatinib (first compound 0.0128 µM) was 0.167; in the assay with 17-AAG + Dasatinib (first compound 0.04048 µM), 0.128; in the assay with 17-AAG + Dasatinib (first compound 0.128 µM) it was 0.149; in the assay with 17-AAG + Decitabine (first compound 0.00128 µM) it was 0.714; with 17-AAG + Decitabine (first compound 0.004048 µM), 0.675; with 17-AAG + Decitabine (first compound 0.0128 µM), 0.424. The relative viability with 17-AAG + Decitabine (first compound 0.04048 µM) stood at 0.242; with 17-AAG + Decitabine (first compound 0.128 µM), 0.189.

Regarding NCI-H3122, the relative viability with 17-AAG + Luminespib (first compound 0.00128 µM) stood at 0.099; with 17-AAG + Luminespib (first compound 0.004048 µM), 0.059; with 17-AAG + Luminespib (first compound 0.0128 µM), 0.0637; with 17-AAG + Luminespib (first compound 0.04048 µM) it was 0.0599; with 17-AAG + Luminespib (first compound 0.128 µM), 0.096; in the assay with 17-AAG + Foretinib (first compound 0.00128 µM), 0.961. For the same cell line, the relative viability is 0.934 with 17-AAG + Foretinib (first compound 0.004048 µM); 0.138 with 17-AAG + Foretinib (first compound 0.0128 µM); 0.076 in the assay with 17-AAG + Foretinib (first compound 0.04048 µM); 0.098 with 17-AAG + Foretinib (first compound 0.128 µM); 0.854 with 17-AAG + Dasatinib (first compound 0.00128 µM); 0.754 in the assay with 17-AAG + Dasatinib (first compound 0.004048 µM). Moreover, the relative viability with 17-AAG + Dasatinib (first compound 0.0128 µM) is 0.0689; with 17-AAG + Dasatinib (first compound 0.04048 µM) it was 0.0681; in the assay with 17-AAG + Dasatinib (first compound 0.128 µM), 0.0701; with 17-AAG + Decitabine (first compound 0.00128 µM) it was 0.487; in the assay with 17-AAG + Decitabine (first compound 0.004048 µM), 0.413; in the assay with 17-AAG + Decitabine (first compound 0.0128 µM) it was 0.426. Also, the values for the relative viability in the assay with 17-AAG + Decitabine (first compound 0.04048 µM) and in the assay with 17-AAG + Decitabine (first compound 0.128 µM) were 0.235 and 0.118, respectively.

PC-3 [JPC-3]: the relative viability in the assay with 17-AAG + Luminespib (first compound 0.00128 µM) was 0.766; with 17-AAG + Luminespib (first compound 0.004048 µM), 0.723; with 17-AAG + Luminespib (first compound 0.0128 µM), 0.71; with 17-AAG + Luminespib (first compound 0.128 µM), 0.538; in the assay with 17-AAG + Foretinib (first compound 0.00128 µM), 0.981; with 17-AAG + Foretinib (first compound 0.004048 µM), 1.04. Moreover, the relative viability was found to be 1.01 with 17-AAG + Foretinib (first compound 0.0128 µM); 0.885 with 17-AAG + Foretinib (first compound 0.128 µM); 1.02 with 17-AAG + Dasatinib (first compound 0.00128 µM); 0.966 in the assay with 17-AAG + Dasatinib (first compound 0.004048 µM); 1 with 17-AAG + Dasatinib (first compound 0.0128 µM); 0.815 with 17-AAG + Dasatinib (first compound 0.128 µM). Moreover, the relative viability came out at 0.829 in the assay with 17-AAG + Decitabine (first compound 0.00128 µM); 0.816 in the assay with 17-AAG + Decitabine (first compound 0.004048 µM); 0.911 with 17-AAG + Decitabine (first compound 0.0128 µM); 0.451 with 17-AAG + Decitabine (first compound 0.04048 µM); 0.658 with 17-AAG + Decitabine (first compound 0.128 µM).

Consider PC-14, for which the relative viability amounted to 0.146 with 17-AAG + Luminespib (first compound 0.00128 µM); 0.111 with 17-AAG + Luminespib (first compound 0.004048 µM); 0.143 with 17-AAG + Luminespib (first compound 0.0128 µM); 0.162 with 17-AAG + Luminespib (first compound 0.04048 µM); 0.128 in the assay with 17-AAG + Luminespib (first compound 0.128 µM); 0.943 in the assay with 17-AAG + Foretinib (first compound 0.00128 µM). Moreover, the relative viability with 17-AAG + Foretinib (first compound 0.004048 µM) was determined as 0.961; with 17-AAG + Foretinib (first compound 0.0128 µM), 0.82; with 17-AAG + Foretinib (first compound 0.04048 µM) it was 0.143; with 17-AAG + Foretinib (first compound 0.128 µM) it was 0.134; in the assay with 17-AAG + Dasatinib (first compound 0.00128 µM), 0.179; in the assay with 17-AAG + Dasatinib (first compound 0.004048 µM), 0.0725. Besides, the relative viability with 17-AAG + Dasatinib (first compound 0.0128 µM) stood at 0.0375; with 17-AAG + Dasatinib (first compound 0.04048 µM) it was 0.0586; with 17-AAG + Dasatinib (first compound 0.128 µM), 0.0476; with 17-AAG + Decitabine (first compound 0.00128 µM), 0.183; with 17-AAG + Decitabine (first compound 0.004048 µM), 0.199; in the assay with 17-AAG + Decitabine (first compound 0.0128 µM), 0.097. Further, the relative viability in the assay with 17-AAG + Decitabine (first compound 0.04048 µM) is 0.103; with 17-AAG + Decitabine (first compound 0.128 µM), 0.0891.

These data come from the supplement of paper PMC10307832.
